{
  "source": "patent US20220087969A1",
  "about": "“METHOD FOR TREATING ASTHMA” (Olatec Therapeutics LLC, priority 2019, published 2022)",
  "assay_type_in_all_cases": "in vivo, C57BL/6j mice",
  "key": {"[1]": {"system": "OVA-induced allergic airway inflammation", "test": "Goblet cells covering airway mucosa (PAS sections, stereology), OVA model, i.p. dapansutrile", "conditions": "treated mice, 60 mg/kg i.p.; asthmatic 22.74%; p<0.01", "experimental": "(§1) C57BL/6j mice were sensitized to OVA (ovalbumin) by three intraperitoneal (i.p.) injections of 10 μg OVA adsorbed to 150 mg aluminum hydroxide on days 1, 14, and 21. This sensitization results in an adoptive immune response against OVA with OVA-specific TH2 cells and the production of OVA-specific antibodies of the subclasses IgE and […]. To induce acute allergic airway inflammation, mice were exposed three times to an OVA aerosol (1% w/v in PBS) on days 26, 27, and 28. Healthy control animals (healthy group) were sham sensitized to PBS and subsequently challenged with PBS aerosol. […] The following readouts were measured according to Lunding, 2015b. • General infiltration of inflammatory cells into the broncheoalveolar lumen • Determination of the specific infiltration of eosinophils, neutrophils and lymphocytes by histologic differentiation of the bronchoalveolar lavage (BAL) cells. • Goblet cell hyperplasia by CAST system (Computer Assisted Stereological Toolbox), including making microscopic pictures of the airways. • Airway resistance in response to methacholine to determine the airway hyperresponsiveness. Specifically, inflammatory cell subpopulations (eosinophils, macrophages, neutrophils, lymphocytes) infiltrating the bronchoalveolar lumen were quantified using cyto-spinned and quick-diff-stained cells from bronchoalveolar lavage fluids (BALF). […]"}, "[2]": {"system": "OVA-induced allergic airway inflammation", "test": "Inflammatory cell infiltrate in lung tissue (HE sections, CAST), OVA model, i.p. dapansutrile", "conditions": "60 mg/kg i.p.; treated vs asthmatic mice; p<0.01", "experimental": "as §1"}, "[3]": {"system": "OVA-induced allergic airway inflammation", "test": "Airway resistance in methacholine provocation test, OVA model, i.p. dapansutrile", "conditions": "60 mg/kg i.p., Day 29, 100 mg/mL methacholine", "experimental": "as §1"}},
  "data": [
    {"smiles": "CS(=O)(=O)CCC#N", "note": "[dapansutrile, 3-methanesulfonylpropionitrile]", "values": [
      {"measurement": "area of epithelial basal membrane covered by goblet cells", "setting": "[1]", "value": 17.67, "unit": "%"},
      {"measurement": "number of inflammatory cells in lung tissue (volume of inflammatory cell infiltrate per basal membrane area)", "setting": "[2]", "value": "significantly lower"},
      {"measurement": "reduction of airway resistance", "setting": "[3]; vs asthmatic mice, p<0.0001", "value": "about 60%"},
      {"measurement": "airway resistance in response to methacholine", "setting": "[3]; treated mice, asthmatic 5.61, healthy 2.83", "value": 3.93, "unit": "cm H2O·sec·ml^−1"}
    ]}
  ]
}
